Molecules are shown by their SMILES. Values joined by “and” are separate entries in the source; they are usually repeats but may differ in a detail not shown here. Equal entries are not always repeated.

Assay [1] concerns SARS-CoV-2 live virus (Delta strain). Kind of assay: microbe, parasite or virus in culture. Format: cell-based.
In another assay the target is PLpro (Severe acute respiratory syndrome coronavirus 2 (2019-nCoV) (SARS-CoV-2), UniProt P0DTD1). The experiment in a line: Assay for PLpro inhibitory activity (Ub-AMC fluorescence; single point inhibition test and IC50 determination). Format: biochemical. The settings on record: for IC50: fluorescence measured after 15 min of reaction; for inhibition at 1 µM: read-out: inhibition of PLpro (1 μM), 1 μM test compound, 100 nM PLpro, 10 μM Ub-AMC, 37° C. 30 min; for inhibition of PLpro (1 μM): 1 μM test compound, 100 nM PLpro, 10 μM Ub-AMC, 37° C. 30 min.

Setting [2] is: Severe acute respiratory syndrome coronavirus 2, Calu-3, 48 h.

With `Cc1ccc(N2CC(N(C)C)C2)cc1C(=O)NC1(c2ccc(F)c3ncccc23)CC1` [Example C26], the Inhibition rate/% is 2.076% and 45.3104% and −0.0016% in assay [1] (3.125 nM, Calu-3 cells, Delta strain, 48 h, three replicate values); 37.9405% and 58.6715% and 67.2927% in assay [1] (6.25 nM, Calu-3 cells, Delta strain, 48 h, three replicate values); −4.0599% and 50.6792% and 17.0436% in assay [1] (12.5 nM, Calu-3 cells, Delta strain, 48 h, three replicate values); −64.656% and 17.2863% and 31.5856% in assay [1] (25 nM, Calu-3 cells, Delta strain, 48 h, three replicate values); 92.4972% and 64.3219% and 67.0889% in assay [1] (50 nM, Calu-3 cells, Delta strain, 48 h, three replicate values); 93.9064% and 96.0939% in assay [1] (100 nM, Calu-3 cells, Delta strain, 48 h, three replicate values). The Inhibition rate/% in assay [1] (200 nM, Calu-3 cells, Delta strain, 48 h, three replicate values) was 99.5887% and 99.6848%; in assay [1] (400 nM, Calu-3 cells, Delta strain, 48 h, three replicate values) it was 99.9327% and 99.8544%. Moreover, the EC50 in assay [1] (setting [2]) turned out to be 36.3 ± 4.11 nM. Besides, the EC90 in assay [1] (setting [2]) was determined as 73.1 ± 7.23 nM. The inhibition at 0.1 µM in assay [1] (Severe acute respiratory syndrome coronavirus 2, Calu-3, 48 h, 100 nM, Calu-3 cells, Delta strain, 48 h, three replicate values, read-out: Inhibition rate/%) came out at 92.2%. Moreover, the inhibition at 0.2 µM in assay [1] (Severe acute respiratory syndrome coronavirus 2, Calu-3, 48 h, 200 nM, Calu-3 cells, Delta strain, 48 h, three replicate values, read-out: Inhibition rate/%) was determined as 99.9%. Besides, the inhibition at 0.4 µM in assay [1] (Severe acute respiratory syndrome coronavirus 2, Calu-3, 48 h, 400 nM, Calu-3 cells, Delta strain, 48 h, three replicate values, read-out: Inhibition rate/%) was determined as 100%. The “inhibition of SARS-CoV-2 live virus infecting human cells (in words)” value in assay [1] (in vitro experiment) was “can effectively inhibit SARS-CoV-2 live virus from infecting human cells”. Besides, the IC50 at PLpro came out at 38.3 ± 5.27 nM. Besides, the inhibition at 1 µM at PLpro stood at 95.9%.

In the case of `Cc1ccc(N2CC(N(C)C)C2)cc1C(=O)NC1(c2ccc(C)c3ccccc23)CC1` [Example C14], on PLpro, 205 ± 13.6 nM corresponded to half-maximal inhibition (IC50) and the inhibition at 1 µM turned out to be 95.1%.

Turning to `COc1ccc(C2(NC(=O)c3cc(N4CC(N(C)C)C4)ccc3C)CC2)c2cccnc12` [Example C76], at PLpro, it took 15.9 ± 3.25 nM to reach half-maximal inhibition (IC50) and the inhibition at 1 µM is 99.6%.

With `Cc1ccc(N2CCNCC2)cc1C(=O)NC1(c2cccc(-c3cccs3)c2)CC1` [Example C6], the inhibition at 1 µM on PLpro was determined as 56.5%.

As for `Cc1ccc(N2CC(N(C)C)C2)cc1C(=O)NC1(c2ccc(F)c3nc(C(F)F)ccc23)CC1` [Example C62], the inhibition at 1 µM at PLpro stood at 92%.

Consider `Cc1ccc(N2CCCC(N(C)C)C2)cc1C(=O)NC1(c2ccc(F)c3ccccc23)CC1` (stereo not drawn) [Example C31], for which the inhibition at 1 µM at PLpro was found to be 49.2%.

Turning to `Cc1ccc(N2CC(N(C)C)C2)cc1C(=O)NC1(c2ccnc3ccccc23)CC1` [Example C28], at PLpro, the midpoint of inhibition, the IC50, lay at 129 nM and the inhibition at 1 µM was determined as 89.7%.

As for `Cc1ccc(N2CC(N(C)C)C2)cc1C(=O)NC1(c2cccc3c2OCCO3)CC1` [Example C77], the inhibition at 1 µM on PLpro stood at 63%.

`Cc1ccc(NC2CN3CCC2CC3)cc1C(=O)NC1(c2ccnc3ccccc23)CC1` (stereo not drawn) [Example C34]: the inhibition at 1 µM at PLpro worked out at 31.1%.

With `Cc1ccc(N2CC(N(C)C)C2)cc1C(=O)NC1(c2ccc(F)c3[nH]c(=O)ccc23)CC1` [Example C60], on PLpro, the inhibition at 1 µM turned out to be 82%.

In the case of `Cc1ccc(N2CC(N(C)C)C2)cc1C(=O)NC1(c2ccc(OC(F)(F)F)c3ncccc23)CC1` [Example C58], on PLpro, the IC50 stood at 220 nM and the inhibition at 1 µM came to 88%.

With `Cc1ccc(N2CC(N(C)C)C2)cc1C(=O)NC1(c2ccc(OC(F)F)c3ccccc23)CC1` [Example C15], the “inhibition of PLpro (1 μM)” value on PLpro was found to be 98.0%.

Consider `Cc1ccc(NC2CN3CCC2CC3)cc1C(=O)NC1(c2ccc(F)c3ncccc23)CC1` (stereo not drawn) [Example C39], for which, on PLpro, the inhibition at 1 µM was 40.8%.

Regarding `Cc1ccc(N2CC(N(C)C)C2)cc1C(=O)NC1(C2=CCCc3ccccc32)CC1` [Example C25], the inhibition at 1 µM at PLpro was 55%.

With `Cc1ccc(N2CC(N(C)C)C2)cc1C(=O)NC1(c2cccc3occc23)CC1` [Example C24], on PLpro, 423 ± 61.4 nM corresponded to half-maximal inhibition (IC50) and the inhibition at 1 µM came to 82.3%.

Take `Cc1ccc(N2CC(N(C)C)C2)cc1CNC1(c2ccc(F)c3ncccc23)CC1` [Example C85]: on PLpro, the inhibition at 1 µM came to 45.7%.

Consider `Cc1ccc(N2CC(N(C)C)C2)cc1C(=O)NC1(c2ccc(F)c3ccccc23)CC1` [Example C16], for which, on PLpro, the IC50 was found to be 56.4 ± 8.48 nM and the inhibition at 1 µM was 89.4%.

Consider `Cc1ccc(N2CC3C(N)C3C2)cc1C(=O)NC1(c2ccc(F)c3ncccc23)CC1` (stereo not drawn) [Example C66], for which, on PLpro, the inhibition at 1 µM worked out at 68%.

As for `Cc1ccc(N2CC(N(C)C)C2)cc1C(=O)NC1(c2cccc(-c3ccccc3)c2)CC1` [Example C23], at PLpro, the inhibition at 1 µM is 5.8%.

With `Cc1ccc(N2CC(N(C)C)C2)cc1C(=O)NC1(c2cccc3ncccc23)CC1` [Example C27], on PLpro, the “inhibition of PLpro (1 μM)” value came out at 88.3% and the IC50 was 97.6 nM.

For the compound `Cc1ccc(N2CC3CCC(C2)N3)cc1C(=O)NC1(c2cccc(C(C)(C)C)c2)CC1` [Example C7], at PLpro, the inhibition at 1 µM was 15%.

Consider `COc1ccc(C2(NC(=O)c3cc(N4CC(N(C)C)C4)ccc3C)CC2)c2ccccc12` [Example C12], for which, on PLpro, the IC50 is 18.6 ± 2.3 nM and the inhibition at 1 µM turned out to be 97.8%.

With `COc1ncc(C2(NC(=O)c3cc(N4CC(N(C)C)C4)ccc3C)CC2)c2ccccc12` [Example C74], at PLpro, the IC50 worked out at 217 ± 22.2 nM and the inhibition at 1 µM is 88.6%.

With `Cc1ccc(N2CCS(=O)(=O)CC2)cc1C(=O)NC1(c2ccc(F)c3ccccc23)CC1` [Example C35], the inhibition at 1 µM on PLpro was determined as 2.6%.

What is called EC50 is the concentration giving half of the maximal effect. The low end stands for an effect from little substance, the high end for a need for much substance. For orientation: EC90 means the concentration needed for an effect of 90%. Read a low EC90 as an effect from little substance. What is called IC50 is the concentration that inhibits the measured activity by half. Low values mean greater potency in that assay, high ones weaker potency in that assay.

The values are drawn from US20250289826A1, “PLPRO PROTEIN INHIBITOR, AND PREPARATION METHOD AND APPLICATION THEREOF” (priority 2022, published 2025).
